From patent US20220016092A1, “METHODS FOR TREATING SYMPTOMS AND DISORDERS ASSOCIATED WITH LYSOSOMAL STORAGE DISEASES” (GENZYME CORPORATION, priority 2019, published 2022)
Several values for one entry are separate records, joined by “and”; a condition that tells them apart may be missing. Equal entries are not always repeated. Where two headings read alike, the source gives them in different places.

Experiments:
[1] = Study 2: ascending repeated-dose pharmacokinetics in healthy volunteers; format: in vivo, human; settings: for AUC(0-t) / Cmax / Tmax / CL renal: both sexes, human, oral; for AUC(0-t) / Cmax / Tmax: plasma; for Tmax: read-out: tmax, median (range); for CL renal: urine and plasma
[2] = system: plasma GL-1, GL-3, and GM3; test: Study 2: pharmacodynamics in healthy volunteers; format: in vivo, human; settings: healthy adults; all dose groups (5, 10, 20 mg)
Experimental: The study enrolled and randomized 36 healthy adults (19 men and 17 women) (n=9 each to group).
Pharmacodynamic endpoints (plasma GL-1, GL-3, and GM3 concentrations) were assessed on Days 1-5, 8, 11, 13, and 14, at 0 hours […]; and on Day 15, at 24 hours after the Day 14 dose.

[3] = system: GM3 expression in C32 human melanoma cells; test: GM3 fluorescent-linked immunosorbent assay (FLISA), C32 cells; format: cell-based; settings: 48 hours
Text: Inhibition of glucosylceramide synthase activity can be measured with one or more assays. A first assay is a microsomal assay that directly measures the conversion of ceramide to glucosylceramide by HPLC. Microsomes are a source of glucosylceramide synthase activity in the microsomal assay. A second assay is a cell based, phenotypic assay that monitors cell surface expression of the downstream lipid GM3 by antibody mediated immunofluorescence. Specific protocols are provided below.
This is a phenotypic assay that measures GM3 expression in B16 mouse melanoma or C32 human melanoma cells following treatment with test compounds. Cell surface GM3 expression is determined by antibody mediated fluorescence.
Compounds are diluted in media and plated in 384 well plates in DMSO. B16 and C32 cells are assayed at densities of 20,000 cells/ml and 62,500 cells/ml, respectively, per well. Each titration curve contains 10 points that are assayed in duplicate on each test run. The plates are incubated for 48 hours at 37° C., 5% CO2, and are then washed once with TBS. Anti-GM3 antibody is added to each well and the plates are then incubated for an additional one hour at room temperature. Plates are subsequently washed twice and incubated for an additional hour with the labeled secondary antibody. Following the final incubation, the plates are washed twice and the fluorescence at λex=D640/20 nm and λem=657 nm is detected on a fluorescent reader.
The results of the microsomal assays are expressed as “GCS IC50”, which represents the concentration of the compound causing 50% inhibition of glucosylceramide synthase activity. The results of the cell-based assays are expressed as “GM3 B16 IC50” or “GM3 C32 IC50” for the B16 assay and the C32 assay, respectively. These values represent the concentration of the compound causing 50% inhibition of GM3 expression on the cell surface.

[4] = system: glucosylceramide (GL-1) and glucosylsphingosine (lyso-GL1) in CSF and plasma; test: Clinical study in GD-3 patients: GL-1 and lyso-GL-1 in CSF and plasma; format: in vivo, human; settings: 15 mg/day + imiglucerase; for GL-1 in CSF, percent change from baseline, Mean (n = 4) / Lyso-GL1 in CSF, percent change from baseline, Mean (n = 4): excludes Patient 5
Experimental: During the study patients were evaluated for safety and tolerability, CSF and plasma biomarkers (glucosylceramide, GL-1; glucosylsphingosine, lyso-GL1), pharmacokinetics, markers for systemic disease (spleen and liver volume measured by magnetic resonance imaging (MRI), platelet count, hemoglobin levels), indicia of interstitial lung disease (high resolution pulmonary computed tomography (CT)), and horizontal saccadic eye movement.
At baseline, the mean (±SD) GL-1 concentration in CSF was 7.1±2.8 ng/mL (range 4.4-11.1 ng/mL), while the mean (±SD) lyso-GL-1 concentration in CSF was 39.3±22.9 pg/mL (range 20.1-67.6 pg/mL). For comparison, the healthy GL-1 concentration in CSF is 4.5-5.9 ng/mL, and the healthy level of lyso-GL-1 in CSF is less than 5.0 pg/mL. […]

[5] = system: adult patients with Gaucher disease Type 3; test: Clinical study in GD-3 patients: trail making test (TMT); format: in vivo, human; settings: 15 mg/day + imiglucerase
Text: The trail making test (TMT) was used to evaluate cognitive function in the patients. The TMT is one of the most widely used neuropsychological tests and is included in most test batteries. The TMT is a diagnostic tool to assess general intelligence and cognitive dysfunctions (Tombaugh et al. [2004]; Cavaco et al. [2013]). In part A of the TMT, subjects are asked to connect a cluster of numbers in ascending order. This task is a combination of visual search and general visual and motor processing speed. Part B presents a sequence which alternates between numbers and letters. Subjects must actively switch between both categories when connecting them in ascending, but alternating order.
TMT-A evaluates mainly perceptual and psychomotor speed. TMT-B assesses more specifically mental flexibility and shifting abilities. TMT B minus TMT A score is used to remove the variance attributable to the graphomotor and visual scanning components of TMT A. This derived score reflects the unique task requirements of TMT B.

[6] = 4 weeks, individual Patients 1-5
[7] = 26 weeks, individual Patients 1-5 (Patient 5 reduced exposure)

**Q.** What does the source list for `CC(C)(NC(=O)O[C@@H]1CN2CCC1CC2)c1csc(-c2ccc(F)cc2)n1` [Compound 2, (S)-quinuclidin-3-yl 2-(2-(4-fluorophenyl)thiazol-4-yl)propan-2-ylcarbamate]?
**A.** AUC(0-t) ([1]; 5 mg, healthy adults, 5 mg once daily, Day 1 (N = 9), read-out: AUC0-24, Geometric mean (CV)): 292 ng·h/mL; AUC(0-t) ([1]; 5 mg, healthy adults, 5 mg once daily, Day 1 (N = 9), read-out: AUC0-24, Mean (SD)): 296 ng·h/mL; Cmax ([1]; 5 mg, healthy adults, 5 mg once daily, Day 1 (N = 9), read-out: Cmax, Geometric mean (CV)): 18.2 ng/mL; Cmax ([1]; 5 mg, healthy adults, 5 mg once daily, Day 1 (N = 9), read-out: Cmax, Mean (SD)): 18.5 ng/mL; Tmax ([1]; 5 mg, healthy adults, 5 mg once daily, Day 1 (N = 9)): 5 h; AUC(0-t) ([1]; 5 mg, healthy adults, 5 mg once daily, Day 14 (N = 9), read-out: AUC0-24, Geometric mean (CV)): 632 ng·h/mL; AUC(0-t) ([1]; 5 mg, healthy adults, 5 mg once daily, Day 14 (N = 9), read-out: AUC0-24, Mean (SD)): 642 ng·h/mL; Cmax ([1]; 5 mg, healthy adults, 5 mg once daily, Day 14 (N = 9), read-out: Cmax, Geometric mean (CV)): 36.5 ng/mL; Cmax ([1]; 5 mg, healthy adults, 5 mg once daily, Day 14 (N = 9), read-out: Cmax, Mean (SD)): 37 ng/mL; Tmax ([1]; 5 mg, healthy adults, 5 mg once daily, Day 14 (N = 9)): 3 h; AUC(0-t) ([1]; 10 mg, healthy adults, 10 mg once daily, Day 1 (N = 9), read-out: AUC0-24, Geometric mean (CV)): 623 ng·h/mL; AUC(0-t) ([1]; 10 mg, healthy adults, 10 mg once daily, Day 1 (N = 9), read-out: AUC0-24, Mean (SD)): 635 ng·h/mL; Cmax ([1]; 10 mg, healthy adults, 10 mg once daily, Day 1 (N = 9), read-out: Cmax, Geometric mean (CV)): 37.8 ng/mL; Cmax ([1]; 10 mg, healthy adults, 10 mg once daily, Day 1 (N = 9), read-out: Cmax, Mean (SD)): 38.5 ng/mL; Tmax ([1]; 10 mg, healthy adults, 10 mg once daily, Day 1 (N = 9)): 3 h; AUC(0-t) ([1]; 10 mg, healthy adults, 10 mg once daily, Day 14 (N = 9), read-out: AUC0-24, Geometric mean (CV)): 1490 ng·h/mL; AUC(0-t) ([1]; 10 mg, healthy adults, 10 mg once daily, Day 14 (N = 9), read-out: AUC0-24, Mean (SD)): 1550 ng·h/mL; Cmax ([1]; 10 mg, healthy adults, 10 mg once daily, Day 14 (N = 9), read-out: Cmax, Geometric mean (CV)): 86 ng/mL; Cmax ([1]; 10 mg, healthy adults, 10 mg once daily, Day 14 (N = 9), read-out: Cmax, Mean (SD)): 89.7 ng/mL; Tmax ([1]; 10 mg, healthy adults, 10 mg once daily, Day 14 (N = 9)): 2 h; AUC(0-t) ([1]; 20 mg, healthy adults, 20 mg once daily, Day 1 (N = 9), read-out: AUC0-24, Geometric mean (CV)): 1080 ng·h/mL; AUC(0-t) ([1]; 20 mg, healthy adults, 20 mg once daily, Day 1 (N = 9), read-out: AUC0-24, Mean (SD)): 1100 ng·h/mL; Cmax ([1]; 20 mg, healthy adults, 20 mg once daily, Day 1 (N = 9), read-out: Cmax, Geometric mean (CV)): 66.5 ng/mL; Cmax ([1]; 20 mg, healthy adults, 20 mg once daily, Day 1 (N = 9), read-out: Cmax, Mean (SD)): 68 ng/mL; Tmax ([1]; 20 mg, healthy adults, 20 mg once daily, Day 1 (N = 9)): 3.07 h; AUC(0-t) ([1]; 20 mg, healthy adults, 20 mg once daily, Day 14 (N = 9), read-out: AUC0-24, Geometric mean (CV)): 2340 ng·h/mL; AUC(0-t) ([1]; 20 mg, healthy adults, 20 mg once daily, Day 14 (N = 9), read-out: AUC0-24, Mean (SD)): 2420 ng·h/mL; Cmax ([1]; 20 mg, healthy adults, 20 mg once daily, Day 14 (N = 9), read-out: Cmax, Geometric mean (CV)): 137 ng/mL; Cmax ([1]; 20 mg, healthy adults, 20 mg once daily, Day 14 (N = 9), read-out: Cmax, Mean (SD)): 142 ng/mL; Tmax ([1]; 20 mg, healthy adults, 20 mg once daily, Day 14 (N = 9)): 3 h; CL renal ([1]; 5 mg, healthy adults, 5 mg once daily, Day 14 (N = 9), read-out: CLR(0-24), Mean (SD) (converted)): 25.8 mL/min; CL renal ([1]; 10 mg, healthy adults, 10 mg once daily, Day 14 (N = 9), read-out: CLR(0-24), Geometric mean (CV) (converted)): 23.3 mL/min; CL renal ([1]; 10 mg, healthy adults, 10 mg once daily, Day 14 (N = 9), read-out: CLR(0-24), Mean (SD) (converted)): 24.8 mL/min; CL renal ([1]; 20 mg, healthy adults, 20 mg once daily, Day 14 (N = 9), read-out: CLR(0-24), Geometric mean (CV) (converted)): 33.3 mL/min; CL renal ([1]; 20 mg, healthy adults, 20 mg once daily, Day 14 (N = 9), read-out: CLR(0-24), Mean (SD) (converted)): 34.5 mL/min; CLss/F, Geometric mean (CV) ([1]; healthy adults, 5 mg once daily, Day 14 (N = 9)): 5.9 (19.5) L/h; CLss/F, Geometric mean (CV) ([1]; healthy adults, 10 mg once daily, Day 14 (N = 9)): 5.0 (24.4) L/h; CLss/F, Geometric mean (CV) ([1]; healthy adults, 20 mg once daily, Day 14 (N = 9)): 6.4 (25.8) L/h; Ctrough values over time ([1]; healthy adults, 5, 10, or 20 mg once daily for 14 days): reached a plateau after Day 5; Time to steady state ([1]; healthy adults, repeated once-daily doses from 5-20 mg): ≤ 5 days; Plasma GL-3 over time [2]: decreased with time; IC50 [3]: 9.6 nM; GL-1 in CSF, percent change from baseline, Mean (n = 4) ([4]; 4 weeks): −64%; Lyso-GL1 in CSF, percent change from baseline, Mean (n = 4) ([4]; 4 weeks): −32%; GL-1 in CSF, percent change from baseline [4, 6]: −86% and −55% and −53% and −62% and −36%; Lyso-GL1 in CSF, percent change from baseline [4, 6]: −38% and −16% and −34% and −39% and −11%; GL-1 in CSF, percent change from baseline, Mean (n = 4) ([4]; 26 weeks): −75%; Lyso-GL1 in CSF, percent change from baseline, Mean (n = 4) ([4]; 26 weeks): −48%; GL-1 in CSF, percent change from baseline [4, 7]: −86% and −78% (2×) and −58% and +4%; Lyso-GL1 in CSF, percent change from baseline [4, 7]: −52% and −42% and −41% and −57% and +94%; Mean difference in time taken to complete Trail B minus Trail A ([5]; 52 weeks, SD=54.3): 66.2 s; Patients with a TMT-A reduction, excluding Patient 5 ([5]; Week 52): four of five; Patients with a TMT-B reduction, excluding Patient 5 ([5]; Week 52): five of five; Patients with a reduction in the (TMT B−TMT A) time ([5]; Week 52): 5 of 6; Patients with an improvement in Trail B minus Trial A, excluding Patient 5 ([5]; Week 52): four of five; Patients with reduction in time taken to complete Trail A ([5]; Week 52): Four of six; Patients with reduction in time taken to complete Trail B ([5]; Week 52): six of six
